Key:
[1] = Preliminary preclinical therapeutic synergy between coumarin and rIL2; assay type: in vivo; details: preliminary preclinical experiments
From the text: In another publication, Wiltrout et al., J. Natl. Cancer Inst.

[2] = tested on: metastatic renal cell cancer; details: clinical trial, selected patients; Marshal et al.; cited from earlier work
[3] = tested on: Renca murine renal cancer; details: combined doxorubicin and adoptive immunotherapy with rIL-2; cited from earlier work
[4] = tested on: natural killer activity; details: cited from earlier work
[5] = tested on: interferon; details: preliminary studies, Wiltrout et al.; cited from earlier work
[6] = tested on: Lewis lung carcinoma; details: cited from earlier work
[7] = tested on: established murine renal cancer; details: established murine renal cancer in BALB/c mice; cited from earlier work
[8] = tested on: natural killer activity; details: preliminary studies, Wiltrout et al.; cited from earlier work
[9] = tested on: Renca renal adenocarcinoma; assay: Survival of Renca-bearing mice treated with flavonoid and/or rIL-2; assay type: in vivo, BALB/C mice; details: Table 1, flavonoid plus rIL-2
Experimental: Tumor model. The model used for these studies is the Renca renal adenocarcinoma, a tumor that originated spontaneously and is maintained by serial transplant in BALB/C mice (JNCI, vol. 50, 1013 (1973)). […] After injection of 1×10^5 tumor cells under the renal capsule, the solid tumor mass develops rapidly with direct extension to the peritoneal cavity by days 7 to 9 and metastasis to regional lymph nodes and the liver shortly thereafter. […] Flavonoid was administered by injection of 125 mg/kg i.v. and 125 mg/kg i.p., whereas various doses of rIL-2 were delivered by the i.p. route. Routinely, flavonoid was administered 2 to 4 h after nephrectomy of the primary tumor-bearing kidney on day 11, and rIL-2 was administered once per day for 4 successive days beginning on the day after nephrectomy and FAA treatment. Statistical analysis of survival data was performed by the .chi.^2 test.
The flavonoid compound was administered by injection of e.g. 125 mg/kg i.v. and e.g. 125 mg/kg i.p., whereas various doses of rIL-2 were delivered by the i.p. route. Routinely, flavonoid compound was administered 2 to 4 hours after nephrectomy of the primary tumor-bearing kidney on day 11 and rIL-2 was administered once per day for 4 successive days beginning on the day after nephrectomy and flavonoid treatment. Statistical analysis of survival data was performed by the .chi.^2 test.
BALB/C mice (e.g. 10/group) were injected i.v. with 1×10^5 Renca tumor cells on day 0. On day 11 the tumor-bearing kidney was removed and 2 to 4 h later flavonoid (125 mg/kg i.v.+125 mg/kg i.p.) was administered to appropriate groups. Subsequently, beginning on day 12, some of the flavonoid pretreated mice and two groups of previously untreated mice received four daily i.p. injections of rIL-2 at doses of 30,000 U/day. Mice were then monitored for survival and statistical analyses performed by the .chi.^2 test.

[10] = tested on: YAC-1 tumor target; assay: Augmentation of NK activity, 4-hr 51Cr release assay with effector leukocytes from treated animals; assay type: in vivo, mice; details: Table 1
From the text: The immunomodulatory activity of boosting NK activity is readily determined in accordance with the protocol outlined by Wiltrout et al. in J. Exp. Med. (1984), vol. 160, p. 1431-1449, which is hereby incorporated by reference. Using this protocol, the flavonoid compounds of the present invention must be capable of boosting NK activity at least 2-fold, preferably at least 3-fold, and most preferably at least 4-fold, as measured in lytic units. (See "In Vitro Methods in Cell Mediated and Tumor Immunity", eds. Barry R. Bloom and John R. David, pub. Academic Press (1976), p. 427, for the definition of lytic units.)
Assessment of NK activity. […] Effector leukocytes were isolated from spleen, peritoneal cavity, lungs, and liver as previously described (J. Exp. Med., vol. 160, 1431 (1984) and J. Immunol., vol. 135, 1477 (1985)). NK activity was expressed as either [formula] or LU/1×10^7 cells, with one LU being the number of effector cells required to lyse 20% or 40% of the target cells. Statistical comparisons in NK activity were performed by the student's t-test.
Peak levels of NK-mediated lysis were generally achieved by 24 hour post injection, with levels of NK activity decreasing to background by about day 6.

[11] = tested on: serum IFN; assay type: in vivo; details: Table 1

O=c1ccc2ccccc2o1 [coumarin]
therapeutic synergy between coumarin and rIL2 [1]: no therapeutic synergy was observed | anti-tumor activity in patients with metastatic renal cell cancer [2]: demonstrated anti-tumor activity

COc1cccc2c1C(=O)c1c(O)c3c(c(O)c1C2=O)C[C@@](O)(C(=O)CO)C[C@@H]3O[C@H]1C[C@H](N)[C@H](O)[C@H](C)O1 [doxorubicin]
treatment of Renca murine renal cancer [3]: successfully treated

O=C(O)Cc1cccc2c(=O)cc(-c3ccccc3)oc12 [flavone-8-acetic acid]
natural killer activity, flavone-8-acetic acid plus rIL-2 ([4]; combination with rIL-2, normal and tumor-bearing mice, Wiltrout et al.): synergistically augmented natural killer activity | natural killer activity in nonlymphoid organs (liver and lungs) as well as in the spleen ([4]; liver, lungs, spleen, Wiltrout et al.): could augment natural killer activity in nonlymphoid organs (liver and lungs) as well as in the spleen | splenic natural killer activity ([4]; spleen, Ching et al.): augments splenic natural killer activity | induction of interferon in vitro [5]: failed to detect induction of interferon | susceptibility of Lewis lung carcinoma cells implanted in diffusion chambers in the peritoneum ([6]; administered ip, diffusion chambers, Finlay et al.): not susceptible | anti-tumor effects against Lewis lung carcinoma ([6]; in vivo, mice, Finlay et al.): pronounced anti-tumor effects | tumoricidal activity in vivo compared with direct cytotoxic effects in vitro ([6]; mouse, in vivo): more pronounced and occurs more rapidly in vivo than direct cytotoxic effects observed in vitro | anti-tumor effects, combination of flavone-8-acetic acid plus interleukin-2 [7]: synergistic anti-tumor effects | augmentation of natural killer activity in vitro [8]: failed to detect

O=C(O)Cc1cccc2c(=O)cc(-c3ccco3)oc12 [LM2888]
Synergistic Therapy With IL-2 [9]: I | NK [10]: + | IFN [11]: I

C=C(C(=O)O)c1cccc2c(=O)cc(-c3ccccc3)oc12 [LM2891]
Synergistic Therapy With IL-2 [9]: + | NK [10]: + | IFN [11]: +

COc1cccc(-c2cc(=O)c3cccc(CC(=O)O)c3o2)c1 [LM2889]
Synergistic Therapy With IL-2 [9]: + | NK [10]: + | IFN [11]: +
